Measurements: publication PMC12509328, “Human Internal Exposures of Bisphenol A and Six Data-Poor Analogs Predicted by Physiologically Based Kinetic Models with Multimodal Parametrization” (Environmental Science & Technology, 2025)
Where two headings read alike, the source gives them in different places. Marks after values point to notes of the source that are not given here.

Legend:
[1] = Present human PBK model, model evaluation (scenarios 3 and 4); conditions: for predicted AUC, times higher than observed: present model vs Teeguarden et al. (BPA dosing); for predicted blood C max as percent of the observed value: present model vs Teeguarden et al.; for predicted blood C max as percent of the observed value / predicted blood C max, times higher than in vivo observed: average
From the text: Several exposure scenarios were defined for parameter gathering, model evaluation, and internal exposure assessment (Table ). In scenarios 1 and 2, a rat PBK model was used to parametrize enterohepatic circulation (EHC) rates for application in human PBK models. […] Models were developed for four human physiologies: male (“man”) and female adults (“woman”), male “child”, and male “toddler” (Table S2). These models were selected based on available physiological data for key organs (thyroid, breasts, and testes), related to ED and the detected bisphenol exposure level. The repeated dose scheme from Karrer et al. was reproduced (scenarios 9 to 12) to model chronic exposure via three meals a day.
When not individually compartmentalized, organs were categorized as either slowly perfused tissues or rapidly perfused tissues and combined. Compartments related to the thyroid, testes, and breasts (depending on sex) were included in human but not rat models. Code was compiled in Berkeley Madonna 10 and Python (see Supporting Information and GitLab: https://gitlab.ethz.ch/eth_toxlab/pbk_model_bisphenol_analogs).
These PBK models were parametrized using a multimodal framework that integrates new approach methodology tools into a reproducible chemical-family wide workflow. This framework combines QSARs, in vitro experiments, and cross-species extrapolation to parametrize PBK models for a family of compounds, some of which were considered data-poor (Figure ). […] Organism-based parameters were tailored to account for species, sex, and age when possible (Figure and Table S2). − Parameters based on both the organism and chemical were partition coefficients, intestinal uptake, EHC rate, and glucuronidation kinetics (Figure ).
To address parameter uncertainty in concentrations that were predicted with human PBK models, 10,000 Monte Carlo (MC) simulations were performed. Each sensitive parameter was resampled according to probability distributions from the literature (Table S8). ,− To ensure physiological plausibility, EHC rates were constrained between 0 and 1, and the sum of all relative organ weights and the sum of all relative organ blood flows were kept constant. MC simulation outcomes were analyzed by comparing the first quartile, the median, and the third quartile values of concentrations per time point.

[2] = set-up: method as in Teeguarden et al.; conditions: ref Teeguarden et al., cited from earlier work
[3] = blood; previous model, BPA; ref Karrer et al.; cited from earlier work
[4] = Glucuronidation kinetics in human liver S9; conditions: human
Protocol: (§1) The glucuronidation kinetics of BPA, BPB, BPE, BPF, BPAF, and BPM were determined as described in the Supporting Information (Tables S6 and S7). Outliers were excluded using the Nalimov test.
(§2) Supplementary information on glucuronidation kinetics measurement
(§3) BPA, BPB, BPE and BPM were incubated with Corning® UltraPool™ Human Liver S9 in a buffer […]
(§4) containing UDPGA. […]
(§5) S9 protein). For each assay, an S9 aliquot was thawed on ice, and a reaction master mix was prepared with 0.1 mg S9 protein/mL in either 0.1 M (for BPA, BPB, BPAF, and BPF) or […] (for BPE and BPM) Tris-HCl, along with 10 mM UDPGA in 50 mM Tris-HCl (pH 7.4), 25 µg/mL alamethicin, and 10 mM magnesium chloride. Negative controls using 0.1 M Tris-HCl without UDPGA were included. Each reaction solution (100 µL) was pre-incubated for 5 min at 37° C with 350 rpm shaking. To this solution was added bisphenol solutions (0 to 20 mM) in DMSO in a ratio of 1:100 to achieve final bisphenol concentrations of 0 to 200 µM and 1% (v/v) […]
(§6) glucuronidation reaction was stopped by adding cold methanol (160 μL) and samples were kept at -20 °C for 1 h to precipitate proteins. The resulting mixture was centrifuged (10 min, 4 °C, 15,000 rcf). Supernatants were analyzed using High-performance liquid chromatography (HPLC) with diode array detector (DAD). […]
(§7) A gradient elution […]
(§8) was used with water containing 0.1% formic acid as eluent A and acetonitrile with 0.1% formic acid as eluent B. The initial condition of 15% eluent B was increased to 65% eluent B over 20 min, and then to 90% eluent B in the next 5 min. […]
(§9) and their glucuronides are provided in Supplementary Table S7. Calibration curves were set from concentrations ranging from 1 to 100 µM.

Human Liver S9 = experiment: Glucuronidation kinetics in human liver S9; conditions: human liver S9 fractions; for Vmax hepatic glucuronidation / Km: GraphPad Prism fitting; for Ksi hepatic glucuronidation: substrate inhibition fit; for Km: read-out: Km hepatic glucuronidation
Protocol: as §1, §2, §3, §4, §5, §6, §7, §8, §9

[5] = system: human small intestinal S9; experiment: Glucuronidation in human small intestinal S9; format: in vitro ADME
Protocol: Supplementary information on glucuronidation kinetics measurement […]
µg/mL alamethicin, and 10 mM magnesium chloride. Negative controls using 0.1 M Tris-HCl […]
without UDPGA were included.
37° C with 350 rpm shaking. […]
at -20 °C for 1 h to precipitate proteins. The resulting mixture was centrifuged (10 min, 4 °C, 15,000 rcf). Supernatants were analyzed using High-performance liquid chromatography (HPLC) with diode array detector (DAD). Similar experiments were conducted for BPA, BPB, BPE, and […]
Bisphenol concentrations ranged
The retention times for the various bisphenols […]
as §9

[6] = set-up: method as in Thayer et al.; conditions: ref Thayer et al., cited from earlier work
[7] = ref Yang et al.; cited from earlier work
[8] = Glucuronidation kinetics in rat liver S9; conditions: male, Sprague-Dawley, rat, rat liver S9, pH 7.4
Protocol: as §1, §2
as §5, with “BPA, BPB, BPE and BPM were incubated with Corning® UltraPool™ Human Liver S9 in a buffer containing UDPGA. The S9 reagent (20 mg protein/mL) was aliquoted and stored at -80° C until use. BPAF and BPF were incubated similarly with rat liver S9 (Sprague-Dawley, male, 0.1 mg/mL S9 protein).” for “S9 protein).”
as §6, with “(DAD). Similar experiments were conducted for BPA, BPB, BPE, and BPM with human small intestinal S9 mix (0.025 to 0.25 mg/mL). Bisphenol concentrations ranged from 5 to 120 µM, and incubation times from 15 to 120 min.” for “(DAD).”
(§10) series HPLC system with a Waters XBridge BEH130 C18 column (4.6 × 150 mm, 3.5 μm particle size) for separation and a DAD set to a detection wavelength of λ = 280 nm. A gradient elution was used with water containing 0.1% formic acid as eluent A and acetonitrile with 0.1% formic acid as eluent B. The initial condition of 15% eluent B was increased to 65% eluent B over 20 min, and then to 90% eluent B in the next 5 min. […]
as §9

[9] = system: rat liver S9 (Sprague-Dawley, male); experiment: Glucuronidation kinetics in rat liver S9
Protocol: as §1, §2
as §5, with “BPA, BPB, BPE and BPM were incubated with Corning® UltraPool™ Human Liver S9 in a buffer containing UDPGA. The S9 reagent (20 mg protein/mL) was aliquoted and stored at -80° C until use. BPAF and BPF were incubated similarly with rat liver S9 (Sprague-Dawley, male, 0.1 mg/mL S9 protein).” for “S9 protein).”
as §6, with “(DAD). Similar experiments were conducted for BPA, BPB, BPE, and BPM with human small intestinal S9 mix (0.025 to 0.25 mg/mL). Bisphenol concentrations ranged from 5 to 120 µM, and incubation times from 15 to 120 min.” for “(DAD).”
as §10, §9

[10] = set-up: method as in Oh et al.; conditions: blood, in vivo, 4 men and 3 women, ref Oh et al., cited from earlier work; for Cmax: 8.75 μg/kg bw d4-BPS in a chocolate cookie; for AUC / t max: 8.75 μg/kg bw d4-BPS
[11] = set-up: method as in Oh et al.; conditions: blood; previous model, BPS; ref Oh et al.; cited from earlier work
[12] = blood, in vivo, 10 men, 30 μg/kg bw d6-BPA in soup
[13] = rat liver S9 fractions, GraphPad Prism fitting
[14] = present model vs Oh et al. (BPS dosing)

Structure (SMILES): CC(C)(c1ccc(O)cc1)c1ccc(O[C@@H]2O[C@H](C(=O)O)[C@@H](O)[C@H](O)[C@H]2O)cc1 [BPA glucuronide]
- predicted AUC, times higher than observed [1]: about 1.5 times
- predicted blood C max as percent of the observed value [1]: 80%
- Cmax ([2]; blood, in vivo, 10 men, 30 μg/kg bw d6-BPA in 355 mL of soup, (range)): 286 nM
- AUC [2, 12]: 680 (571–1′210) ^a nM x day
- t max [2, 12]: 1.2 (0.8–2.2) ^a h
- Cmax [3]: 610 nM
- t max [3]: 0.94 (0.93–0.97) ^c h

Structure (SMILES): CC(C)(c1ccc(O)cc1)c1ccc(O)cc1 [BPA, bisphenol A]
- predicted AUC, times higher than observed [1]: about 1.5 times
- predicted blood C max as percent of the observed value [1]: 63%
- Km ([4]; pH 7.4): 13.1 µM
- Vmax hepatic glucuronidation (Human Liver S9): 4.06 nmol/min/mg
- glucuronidation rates in small intestinal S9 fractions [5]: negligible
- urinary excretion ([2]; at 24 h, range 90–116%): 104%
- AUC [2, 12]: 2.5 (1.4–5.7) ^a nM x day
- urinary fraction of unconjugated BPA [2]: 0.03%
- urinary excretion ([6]; at 24 h, range 92–100%): 98%
- cumulative urinary excretion ([6]; by 48 h): 80–110%
- urinary fraction of unconjugated BPA [6]: 0.029%
- total BPA excreted ([6]; within 12 h post exposure, range 86–98%): 94%
- AUC [3]: 4.15 (2.91–5.15) ^c nM x day
- Cmax [3]: 1.31 nM
- t max [3]: 0.72 (0.67–0.77) ^c h
- glucuronidated BPA undergoing EHC [7]: ten

Structure (SMILES): Oc1ccc(C(c2ccc(O)cc2)(C(F)(F)F)C(F)(F)F)cc1 [BPAF, Bisphenol AF]
- Km [8]: 49.7 µM
- Vmax hepatic glucuronidation [9, 13]: 7.10 nmol/min/mg
- Ksi hepatic glucuronidation ([9]; rat liver S9 fractions, substrate inhibition fit): 27.63 µM

Structure (SMILES): CCC(C)(c1ccc(O)cc1)c1ccc(O)cc1 [BPB, Bisphenol B]
- Km ([4]; human liver S9, pH 7.4): 12.3 µM
- Vmax hepatic glucuronidation (Human Liver S9): 5.81 nmol/min/mg
- Ksi hepatic glucuronidation (Human Liver S9): 21.48 µM
- glucuronidation rates in small intestinal S9 fractions [5]: negligible

Structure (SMILES): CC(c1ccc(O)cc1)c1ccc(O)cc1 [BPE, Bisphenol E]
- Vmax hepatic glucuronidation (Human Liver S9): 3.42 nmol/min/mg
- Ksi hepatic glucuronidation (Human Liver S9): 280.6 µM
- Km (Human Liver S9): 51.3 µM
- glucuronidation rates in small intestinal S9 fractions [5]: negligible

Structure (SMILES): Oc1ccc(Cc2ccc(O)cc2)cc1 [BPF, Bisphenol F]
- Vmax hepatic glucuronidation [9, 13]: 1.17 nmol/min/mg
- Vmax hepatic glucuronidation ([9]; rat model code): 1.173 nmol/min/mg
- Km ([9]; read-out: Km hepatic glucuronidation, rat liver S9 fractions, GraphPad Prism fitting): 47.5 µM

Structure (SMILES): CC(C)(c1ccc(O)cc1)c1cccc(C(C)(C)c2ccc(O)cc2)c1 [BPM, Bisphenol M]
- Vmax hepatic glucuronidation (Human Liver S9): 4.89 nmol/min/mg
- Ksi hepatic glucuronidation (Human Liver S9): 51.75 µM
- Km (Human Liver S9): 20.2 µM
- glucuronidation rates in small intestinal S9 fractions [5]: negligible

Structure (SMILES): O=C(O)[C@H]1O[C@@H](Oc2ccc(S(=O)(=O)c3ccc(O)cc3)cc2)[C@H](O)[C@@H](O)[C@@H]1O [BPS glucuronide]
- mean predicted AUC, times higher than in vivo [1, 14]: about 2.4 times
- predicted blood C max, times higher than in vivo observed [1, 14]: 2.8 times
- Cmax [10]: 10.5 nM
- AUC [10]: 78.7 (54–103) ^d nM x day
- t max [10]: 1.0 (1.0–1.0) ^d h

Structure (SMILES): O=S(=O)(c1ccc(O)cc1)c1ccc(O)cc1 [BPS, Bisphenol S]
- delay of average predicted t max vs measure [1, 14]: 1.7 h
- predicted blood C max, times higher than in vivo observed [1, 14]: 1.6 times
- Cmax [10]: 8.79 nM
- AUC [10]: 40 − , ^d nM x day
- t max [10]: 0.5 (0.25–0.5) ^d h
- AUC [11]: 39.8 − ^, ^e nM x day
- Cmax [11]: 10.1 nM
- t max [11]: 0.57 (0.26–0.88) ^e h
